Experimental data as given in publication PMC12644675, “The mass spectrometric intact transition epitope mapping method supports protein engineering of foldon trimer variants” (Scientific Reports, 2025).
Where “and” joins values, the source holds several entries; their conditions need not be identical. Identical values can stand only once. Like-named read-outs stand apart in the source and are kept apart here.

Assays:
[1] = test system: foldon homo-trimer; experiment: ITEM-FIVE: collision-induced dissociation of foldon homo-trimer 5+ ions in the gas phase (nanoESI-MS); type: binding, T4 phage; details: for k#m0g (apparent kinetic constant of trimer dissociation) / TambΔS#m0g / ΔG#m0g (pseudo thermodynamic activation free energy of trimer dissociation) / ΔH#m0g (activation enthalpy of trimer dissociation): gas phase, two measurement series averaged; for k#m0g (apparent kinetic constant of trimer dissociation): CID ΔCV 0-50 V, linear extrapolation to ambient temperature (298 K), dimensionless, sprayed from 50 mM ammonium acetate pH 5.5, 0.1 µg/µl; for TambΔS#m0g: Tamb 298 K; for ΔG#m0g (pseudo thermodynamic activation free energy of trimer dissociation) / ΔH#m0g (activation enthalpy of trimer dissociation): extrapolated to ambient temperature
From the text: ITEM-FIVE investigations started with electrospraying foldon-containing solutions and by setting the first mass filter (quadrupole) to selecting only foldon trimer ions for transmission into the instrument’s collision cell.
After mass filtering, this was the only remaining ion signal in the mass spectrum because the energy in the collision cell was too low to initiate complex dissociation. […] At 20 V the trimer ion signals were barely visible (Fig. 2C), leaving mass spectra with dominating ion signals of dimers and monomers. Finally, at 40 V, the only ion signals which remained visible in the mass spectra were those of the monomers (Fig. 2D). Independent measurement series of complex dissociations were recorded twice for each foldon variant (Tables S1–S7). […] Plotting the courses of normalized educt ion intensities as functions of ∆CV provided sigmoidal shaped curves with Boltzmann characteristics for all foldons (Fig. 3).
Approximating the tangent lines at the ∆CV50 values of all the Boltzmann curves (R^2 = 0.999 for all foldons; cf. Table S8) and upon transforming ∆CV values to reaction temperatures (applying formula (5) see Supplement) enabled drawing of Arrhenius plots (Fig. S11, applying formulas (1) and (5)) and Ellingham diagrams (Fig. S12, formulas (3), (4) and (5)). The values were calculated from formulas (2), (5) and (6). […] Likewise, the pseudo thermodynamic activation free energy values, followed in all Ellingham diagrams courses with almost parallel lining up of linear courses of all foldons when plotted against (according to formula (4)).
Mass spectra were acquired on a Synapt G2-S instrument (Waters MS-Technologies, Wilmslow, UK). Instrument calibration was performed with a sodium iodide solution with a concentration of 2 mg/ml, dissolved in isopropanol/water (50:50 v/v).
All mass spectra were acquired in positive ion mode applying a mass window from m/z 400 to m/z 8000. NanoESI measurements were performed with the following instrument settings: capillary voltage: 1.0–1.2 kV, sample cone voltage: 13 V source offset: 12 V, source gas flow: 0.0 ml/min, cone gas flow: 9 l/h, helium cell gas flow: 40 ml/min, IMS gas flow: 20.0 ml/min, trap collision voltage for nanoESI-MS analysis: 0–2 V, source temperature: 40 °C; trap gas flow: 2.0 ml/min, reflectron grid 1.449 kV. Data acquisition and processing were done with the MassLynx software version 4.1 (Waters MS-Technologies, Wilmslow, UK)[31].
ITEM-FIVE experiments started with isolating the quintuply charged foldon trimer ion signal as the respective precursor ion[31]. Then the collision cell voltage difference (ΔCV) in the trap cell was increased stepwise from: 0 V, to 2 V, 5 V, 7 V, 10 V, 12 V, 15 V, 20 V, 30 V, 40 V, and 50 V. At each ΔCV setting mass spectra were accumulated for 2 min and scans were combined using the MassLynx Software version 4.1 (Waters MS Technologies, Wilmslow, UK). Two measurement series were recorded. Mass spectrometry data have been deposited at the ProteomeXchange Consortium’s PRIDE repository[62] with the dataset identifier PXD064233.
From each mass spectrum one list with mass/intensity pair data was copied into a text file and then imported into the OriginPro 2017G software (64 bit) (OriginLab Corporation, Northampton, MA, USA) where it was further processed to eliminate baseline and noise signals. Then, the processed mass list data were converted to a Microsoft Access 2010 database from which data of pre-defined target masses were extracted with a threshold of ± 0.5 Da. Target masses were selected to represent the most characteristic ion signals in the respective mass spectrum: educts were represented by the trimer’s 5 + ion signal and products by the dimer’s 3 + ion signal and the monomer’s 2 + ion signal. […] Ion signal intensities were normalized by setting the sum of all remaining target mass ion signals to 100%. […]

[2] = Travelling wave ion mobility: drift times and CCS of homo-trimer 5+ ions; type: physicochemical; details: TWIM, nitrogen; for TWCCSN2 exp. (mean): 5+ trimer ion; for TWCCSN2 exp. (mean) / dt (mean): 50 mM ammonium acetate pH 5.5, c = 0.1 mg/ml, mean of two independent measurements; for dt (mean): centroided 5+ trimer ion signal; for FWHM: drift time peak of 5+ trimer ion, unit assumed
Experimental: Ion mobility measurements were performed using a Synapt G2-S instrument (Waters Corporation, Wilmslow, UK) equipped with a travelling wave ion mobility (TWIM) cell. Nitrogen was the neutral buffer gas for all TWIM experiments. All mass spectra were acquired in positive ion mode applying a mass window from m/z 400 to m/z 8000. Instrument settings were as follows: capillary voltage: 1.2 kV, sample cone voltage: 13 V, source offset: 12 V, source temperature: 40 °C, trap collision energy: 2.0 V, pusher: 1900 V, puller: 1370 V, reflectron grid 1.451 kV, source gas flow: 0.0 ml/min, cone gas flow: 9 l/h, nano flow gas pressure: 0.2 bar, helium cell gas flow: 140 ml/min, IMS gas flow: 50.0 ml/min, trap collision voltage: 2 V, trap gas flow: 5.0 ml/min, IMS wave velocity 1600 m/s, wave height: 30.0 V. Data acquisition, arrival time determinations, and processing were done with the MassLynx software version 4.1 (Waters MS-Technologies, Wilmslow, UK[31]. TWIM calibration was done with bovine serum albumin, myoglobin, cytochrome c, ubiquitin, and insulin using published CCS values (Table S18)[66],[67] and applying the published algorithms for logarithmic fits[66],[68] as well as for linear fits[69].

[3] = drift gas nitrogen, in Å2, cited from earlier work
From the text: Supplement 41598_2025_28101_MOESM1_ESM.docx, table 25: Table S18: Drift times, experimentally determined CCS, and literature references of calibrant proteins. | column: CCS from literature ^a)

[4] = Travelling wave ion mobility CCS calibration: drift times and TWCCSN2 of calibrant protein ions; type: physicochemical; details: drift gas nitrogen, repeat determinations printed as separate rows; for dt exp.: in ms; for TWCCSN2: in Å2
From the text: Supplement 41598_2025_28101_MOESM1_ESM.docx, table 25: Table S18: Drift times, experimentally determined CCS, and literature references of calibrant proteins. | column: CCS determinations ^a); CCS from literature ^a)

[5] = Boltzmann curve parameter, 5+ trimer ion, mean of two measurement series, Table S8
[6] = collision cell voltage difference at half dissociation of 5+ trimer ion, Boltzmann fit

Substance	ΔCV50 [1, 5]	ΔCV50 [1, 6] [V]	k#m0g (apparent kinetic constant of trimer dissociation) ([1]; 5+ trimer ion)	TambΔS#m0g ([1]; 5+ trimer ion) [kcal/mol]	ΔG#m0g (pseudo thermodynamic activation free energy of trimer dissociation) ([1]; 5+ trimer ion) [kcal/mol]	ΔH#m0g (activation enthalpy of trimer dissociation) ([1]; 5+ trimer ion) [kcal/mol]	TWCCSN2 exp. (mean) [2] [Å^2]	dt (mean) [2] [ms]	FWHM [2] [ms]	other results
H-Gly^1Tyr^2IPEAPRDGly^10QAYVRKAsp^17GEWVLLSTFL-OH [foldon 0, original T4 Fibritin foldon mini-protein of 27 amino acids, purchased, forms homo-trimers, reference compound]	13.51	13.5	3.61 × 10^8	9.56	5.71	15.3	1160	10.8	1.9	
serum albumin										CCS from literature, CCS exp. ([3]; calibrant ion z = 15): 4490; CCS from literature, CCS exp. ([3]; calibrant ion z = 16): 4470; CCS from literature, CCS exp. ([3]; calibrant ion z = 17): 4490; dt exp. ([4]; calibrant ion z = 15): 18.80; TWCCSN2 ([4]; calibrant ion z = 15): 4310
H-Dip^2IPEAPRDala^10QAYVRKphe^17GEWVLLSTFL-NH2 [foldon 6, T4Ff variant without Gly1, Dip at position 2]	13.42	13.4	3.47 × 10^8	10.1	5.88	16	1177	11.3	1.5	
H-Gly^1tyr^2IPEAPRDala^10QAYVRKphe^17GEWVLLSTFL-NH2 [foldon 2]			3.60 × 10^9	9.03	4.42	13.5	1169	11.0	1.5	
H-Tyr^2IPEAPRDala^10QAYVRKphe^17GEWVLLSTFL-NH2 [foldon 3]	11.63		2.64 × 10^9	8.99	4.57	13.6	1164	10.9	1.2	
H-Gly^1Tyr^2IPEAPRDala^10QAYVRKphe^17GEWVLLSTFL-NH2 [foldon 1, T4Ff variant with D-Ala10, D-Phe17 and C-terminal carboxamide]	11.04	11.0	6.61 × 10^9	8.44	3.94	12.4	1172	11.1	1.5	
insulin										dt exp. ([4]; calibrant ion z = 3): 12.3 and 12.44; TWCCSN2 ([4]; calibrant ion z = 3): 729 and 732; dt exp. ([4]; calibrant ion z = 4): 8.43 and 8.57; TWCCSN2 ([4]; calibrant ion z = 4): 865 and 868; dt exp. ([4]; calibrant ion z = 5): 7.19; TWCCSN2 ([4]; calibrant ion z = 5): 1038
ubiquitin										CCS from literature, CCS exp. ([3]; calibrant ion z = 4): 949; CCS from literature, CCS exp. ([3]; calibrant ion z = 5): 1011; dt exp. ([4]; calibrant ion z = 4): 11.75; TWCCSN2 ([4]; calibrant ion z = 4): 956
H-Nal^2IPEAPRDala^10QAYVRKphe^17GEWVLLSTFL-NH2 [foldon 5, T4Ff variant without Gly1, Nal at position 2]	12.25		1.22 × 10^9	9.56	5.04	14.6	1169	11.0	0.8	
H-tyr^2IPEAPRDala^10QAYVRKphe^17GEWVLLSTFL-NH2 [foldon 4, T4Ff variant without Gly1, D-Tyr at position 2]	12.26		1.17 × 10^9	9.27	5.07	14.3	1164	10.9	1.6	
